Test results as given in PMC9416004, “A Versatile Class of 1,4,4-Trisubstituted Piperidines Block Coronavirus Replication In Vitro” (Pharmaceuticals, 2022).
Where two headings read alike, the source gives them in different places.

Key:
[1] = test system: HCoV-229E; experiment: Cytopathic effect (CPE) reduction assay with HCoV-229E in HEL cells; assay type: cell-based, human coronavirus 229E; conditions: for EC50: Human coronavirus 229E, 120 h; for Selectivity Index MTS: ratio of CC50 to EC50-MTS; for Selectivity Index MTS / Selectivity Index Microscopy: only values of 10 or higher shown; for Selectivity Index Microscopy: ratio of MCC to EC50-microscopy
[2] = in vitro; conditions: human
[3] = biological target: SARS-CoV-2 nsp5 main protease (M^pro) (Severe acute respiratory syndrome coronavirus 2, UniProt P0DTD1); experiment: FRET-based M^pro enzymatic assay; assay type: biochemical; conditions: for IC50 on SARS-CoV-2 M^pro enzyme activity: 80 nM nsp5, 5 μM Dabcyl-KTSAVLQSGFRKM-Edans-NH2 substrate, mean ± SEM (N = 3)
Procedure: Serial dilutions of the compounds were incubated with purified nsp5 protein in the presence of substrate (Dabcyl-KTSAVLQ↓SGFRKM-Edans-NH2), and peptide cleavage was followed by an increase in fluorescence. The compounds’ IC50 values were determined by Hill curve fitting. Values are the mean ± SEM (N = 3).
After transforming the pGEX-6P-1 plasmid in E. coli BL21 DE3 gold, nsp5 production was stimulated by overnight induction with 250 μM IPTG at a temperature of 17 °C. After centrifugation, the bacteria were resuspended in buffer consisting of: 50 mM Tris pH 8; 300 mM NaCl; 5 mM MgSO4; 1 mM PMSF; 10 μg/mL DNAse I; 0.25 mg/mL Lysozyme; 0.1%Triton X-100; and 10% glycerol. The cells were lysed by three cycles of sonication and centrifugation. The nsp5 protein was bound to Co-NTA agarose beads and eluted in lysis buffer containing 250 mM of imidazole. Next, the protein product was concentrated on a Vivaspin 20 centrifugal concentrator (10 kDa cut-off; GE Healthcare) and imidazole was removed by dialysis. Finally, the purified nsp5 was stored at −80 °C with 50% glycerol.
M^pro enzymatic assay. The fluorescence resonance energy transfer (FRET)-based protease assay was performed in black 384-well plates. Briefly, serial dilutions of the compounds were incubated with 80 nM nsp5 protein and 5 μM peptide substrate (Dabcyl-KTSAVLQ↓SGFRKM-Edans-NH2; Genscript) in buffer consisting of: 20 mM HEPES pH 6.5; 120 mM NaCl; 0.4 mM EDTA; 4 mM dithiothreitol; and 10% glycerol. The final DMSO content was 0.5%. Cleavage of the substrate was monitored for 40 min by measuring the increasing fluorescence in a Tecan Safire 2 plate reader (wavelength settings: excitation at 335 nm and emission at 493 nm). For each condition, enzyme activity was derived from the slope for the linear part of the curve and expressed relative to the activity in the condition receiving no compound. To determine the IC50 values, GraphPad Prism software was used to plot the % of enzyme activity against compound concentration and then fit the curves according to the equation Y = 100/(1 + (X/IC50)^HillSlope).

[4] = test system: human embryonic lung (HEL) fibroblast cells; conditions: mock-infected HEL cells; microscopically visible alterations in cell morphology
[5] = test system: HCoV-229E; experiment: One-cycle time-of-compound addition (TOA) assay with HCoV-229E in HEL cells; assay type: cell-based, human coronavirus 229E
[6] = test system: SARS-CoV-2; experiment: RT-qPCR-based SARS-CoV-2 viral load reduction assay in A549-AT cells; assay type: cell-based
[7] = HCoV-229E-infected HEL cells, protection against virus-induced CPE by MTS cell viability assay, five days at 35 °C, read-out: Antiviral EC50 MTS
[8] = HCoV-229E-infected HEL cells, protection against virus-induced CPE by microscopic scoring, five days at 35 °C, read-out: Antiviral EC50 Microscopy

Compound | EC50 [1, 7] [µM] | EC50 [1, 8] [µM] | CC50 [2] [µM] | Cytotoxicity MCC (minimal cytotoxic concentration) [4] [µM] | further results
COC(=O)C[C@H](NC(=O)OC(C)(C)C)C(=O)N(Cc1ccccc1)C1(C(=O)NCc2ccccc2)CCN(Cc2ccccc2)CC1 [Compound 1] | > 100 | > 100 | > 100 | >100 | Antiviral EC50 MTS ([1]; HCoV-229E-infected HEL cells, protection against virus-induced CPE by MTS cell viability assay, five days at 35 °C): no activity; IC50 [3]: 161 ± 35 µM; IC50 on SARS-CoV-2 M^pro enzyme activity [3]: only marginal activity
CO/C1=C\C(C)=C\[C@@H](C)[C@@H](O)[C@@H](C)C/C(C)=C/C=C/[C@H](OC)[C@@H]([C@@H](C)[C@@H](O)[C@H](C)[C@@]2(O)C[C@@H](O)[C@H](C)[C@@H](C(C)C)O2)OC1=O [bafilomycin] | – | – | – | – | inhibition of viral RNA synthesis [5]: 9%
Cc1ccc(CC(NC(=O)OC(C)(C)C)C(=O)N(Cc2ccccc2)C2(C(=O)NCc3ccccc3)CCN(Cc3ccccc3)CC2)cc1 (centres unmarked) [Compound 52, Tert-butyl(1-(benzyl(1-benzyl-4-benzylcarbamoylpiperidin-4-yl)amino)-1-oxo-3-(p-tolyl)propan-2-yl)carbamate] | 4.7 ± 0.6 | 6.6 ± 1.8 | – | ≥100 | Selectivity Index MTS [1]: >21; Selectivity Index Microscopy [1]: ≥15; Antiviral activity EC99 ([6]; 100-fold reduction in viral RNA copies in supernatant at day 3 p.i.): 3.9 µM; EC90 ([6]; Severe acute respiratory syndrome coronavirus 2, 72 h, 10-fold reduction in viral RNA copies in supernatant at day 3 p.i., read-out: Antiviral activity EC90): 1.7 µM; IC50 [3]: 14 ± 4 µM
CC(C)C[C@H](NC(=O)OCc1ccccc1)C(=O)N[C@@H](C[C@@H]1CCNC1=O)C(O)S(=O)(=O)[O-].[Na+] (some centres unmarked) [GC376] | – | – | – | – | inhibition of viral RNA synthesis ([5]; […], 33 15 µM, GC376 25 µM, GS-441524 20 µM, K22 15 µM): ~ 90%
COC(=O)C[C@H](NC(=O)OCc1ccccc1)C(=O)N(Cc1ccc(C)cc1)C1(C(=O)NCc2ccccc2)CCN(CCc2ccccc2)CC1 [Compound 59, Methyl(S)-4-((4-benzylcarbamoyl-1-phenethylpiperidin-4-yl)(4-methylbenzyl)amino)-3-benzyloxycarbonylamino-4-oxobutanoate] | 5.1 ± 1 | 8.8 ± 0.7 | 15 ± 5 | 16 | –
COC(=O)C[C@H](NC(=O)OC(C)(C)C)C(=O)N(Cc1cccc(F)c1)C1(C(=O)NCc2ccccc2)CCN(Cc2ccccc2)CC1 [Compound 27] | 14 ± 1 | 10 ± 3 | 46 ± 4 | 100 | Selectivity Index Microscopy [1]: 10
CC(C)(C)OC(=O)NC(Cc1ccccc1)C(=O)N(Cc1ccccc1)C1(C(=O)NCc2ccccc2)CCN(Cc2ccc([N+](=O)[O-])cc2)CC1 (centres unmarked) [Compound 63, Tert-butyl(1-(benzyl(4-benzylcarbamoyl-1-(4-nitrobenzyl)piperidin-4-yl)amino)-1-oxo-3-phenylpropan-2-yl)carbamate] | 77 ± 9 | 82 ± 15 | > 100 | ≥100 | IC50 [3]: 196 ± 39 µM; IC50 on SARS-CoV-2 M^pro enzyme activity [3]: only marginal activity
COC(=O)C[C@H](NC(=O)OC(C)(C)C)C(=O)N(Cc1ccc(C(F)(F)F)cc1)C1(C(=O)NCc2ccccc2)CCN(Cc2ccccc2)CC1 [Compound 24] | 4.2 ± 1 | 3.1 | 11 ± 1 | 25 | –
CC(C)(C)OC(=O)N[C@@H](Cc1ccccc1)C(=O)N(Cc1ccccc1)C1(C(=O)NCc2ccccc2)CCN(Cc2ccccc2)CC1 [Compound 46] | 4.5 ± 0.2 | 7.4 ± 1.3 | 75 | ≥100 | Selectivity Index MTS [1]: 17; Selectivity Index Microscopy [1]: ≥14; IC50 [3]: 22 ± 2 µM
COC(=O)C[C@H](N)C(=O)N(Cc1ccccc1)C1(C(=O)NCc2ccccc2)CCN(Cc2ccccc2)CC1 [Compound 32] | 62 ± 7 | 55 ± 3 | > 100 | >100 | –
COC(=O)C[C@H](NC(=O)OC(C)(C)C)C(=O)N(Cc1ccc(F)cc1)C1(C(=O)NC(C)(C)C)CCN(Cc2ccccc2)CC1 [Compound 12] | 11 | 11 | 77 | ≥100 | –
CC(C)(C)OC(=O)NC(Cc1ccccc1)C(=O)N(Cc1ccccc1)C1(C(=O)NCc2ccccc2)CCN(Cc2ccc(Cl)cc2)CC1 (centres unmarked) [Compound 61, Tert-butyl(1-(benzyl(4-benzylcarbamoyl-1-(4-chlorobenzyl)piperidin-4-yl)amino)-1-oxo-3-phenylpropan-2-yl)carbamate] | 30 ± 7 | 36 ± 9 | > 100 | >100 | –
COC(=O)C[C@H](NC(=O)OC(C)(C)C)C(=O)N(Cc1ccccc1)C1(C(=O)NC2CCCCC2)CCN(Cc2ccccc2)CC1 [Compound 16, Methyl(S)-4-(benzyl(1-benzyl-4-cyclohexylcarbamoylpiperidin-4-yl)amino)-3-tert-butoxycarbonylamino-4-oxobutanoate] | 10 | 16 ± 3 | 42 ± 4 | ≥40 | –
COC(=O)C[C@H](NC(=O)OC(C)(C)C)C(=O)N(Cc1ccc(F)cc1)C1(C(=O)NCc2ccccc2)CCN(Cc2cccc(F)c2)CC1 [Compound 9] | > 100 | > 100 | > 100 | >100 | –
CC(C)(C)OC(=O)N[C@@H](Cc1ccccc1)C(=O)N(Cc1ccc(F)cc1)C1(C(=O)NCc2ccccc2)CCN(Cc2ccccc2)CC1 [Compound 45] | 1.1 ± 0.2 | 0.85 ± 0.07 | 4.4 ± 0.8 | 50 | IC50 [3]: 15 ± 2 µM
COC(=O)C[C@H](NC(=O)OC(C)(C)C)C(=O)N(Cc1ccc(F)cc1)C1(C(=O)NCS(=O)(=O)c2ccc(C)cc2)CCN(Cc2ccccc2)CC1 [Compound 14] | 30 ± 6 | 57 ± 18 | 78 ± 11 | 100 | –
CCOC(=O)[C@H]1O[C@@H]1C(=O)N[C@@H](CC(C)C)C(=O)NCCC(C)C [Compound E64d] | – | – | – | – | inhibition of viral RNA synthesis ([5]; compound addition delayed until 4 h p.i., HEL cells lysed at 16 h p.i., E64d 15 µM, bafilomycin 0.00625 µM): 46%
COC(=O)C[C@H](NC(=O)OC(C)(C)C)C(=O)N(Cc1ccc(F)cc1)C(C)(C)C(=O)NCc1ccccc1 [Compound 3] | > 100 | > 100 | > 100 | >100 | –
COC(=O)C[C@H](N)C(=O)N(Cc1ccc(F)cc1)C1(C(=O)NCc2ccccc2)CCN(Cc2ccccc2)CC1 [Compound 31] | 2.8 ± 0.5 | 3.3 ± 0.2 | 4.9 ± 1.5 | 11 | –
COC(=O)C[C@H](NC(=O)OC(C)(C)C)C(=O)N(Cc1ccc(F)cc1)C1(C(=O)NCc2ccccc2)CCN(C)CC1 [Compound 5] | 22 ± 7 | 22 ± 9 | 92 ± 4 | >100 | –
COC(=O)C[C@H](NC(=O)OCc1ccccc1)C(=O)N(Cc1ccccc1)C1(C(=O)NCc2ccccc2)CCN(CCc2ccc(F)cc2)CC1 [Compound 56, Methyl(S)-4-(benzyl(4-benzylcarbamoyl-1-(4-fluorophenethyl)piperidin-4-yl)amino)-3-benzyloxycarbonylamino-4-oxobutanoate] | 6 ± 1.9 | 7.6 ± 1.8 | 23 ± 3 | 32 | –
